# Measured values published in publication PMC12491715 (Acta Pharmaceutica Sinica. B, 2025).
# How the values were obtained:
# [1] = test system: C57BL/6JRccHsd mice; test: Daily observation during repeated dosing; assay type: in vivo; details: 1 or 5 mg/kg p.o. daily for 27 days
# Experimental: […]. […] Due to the nature of this pilot study, the mice were housed individually.
# Seven animals received the 1 mg/kg dose of compound 8, and five animals received the 5 mg/kg dose of compound 8. Compound 8 was prepared as a stock solution in 100% MeCN (5 and 10 mg/mL) and kept refrigerated for the duration of the study. The dosages were prepared as follows: based on the animal’s body weight, a calculated volume of compound 8 stock solution was accurately pipetted onto a cubic piece (approx. 50 mg) of sterilized toast (Ölz multigrain toast, Rudolf Ölz Meisterbäcker GmbH & Co KG, Austria), and left to dry at room temperature for 5 min. Subsequently, 25 μL of 50% sucrose in distilled water were added at the same site to mask the bitter taste of compound 8. These dosage units were prepared twice a week during the study and stored in a closed glass petri dish at room temperature until use. For administration, the toast pieces were placed on the floor of the cage at the same time each day, and left for the animal to eat it voluntarily (the consumption of the dosage was confirmed by observation). Compound 8 was administered in this way for 27 days, eliminating the need for repeated handling and injection. The animals were observed daily for general activity level, hair coat quality or other abnormal behavior or clinical signs.
# [2] = molecular target: T1, hBChE (Homo sapiens, UniProt P06276); test: hBChE binding kinetics: carbamoylation and decarbamoylation, initial velocity measurements; assay type: biochemical
# Experimental: The progress curves for the time courses of product formation for the hydrolysis of butyrylthiocholine iodide were measured on an Agilent Cary 3500 UV–VIS spectrophotometer with Compact Peltier (thermostated at 25 °C) at 412 nm using a 0.6 mL cuvette (optical path–0.5 cm). 30 mmol/L Tris buffer pH 7.0 with 1 mg/mL BSA and 0.02% NaN3 was used and all dilutions were done in glass vessels (note: dilute hBChE solutions rapidly lose activity, presumably due to adsorption to plastic, preventing meaningful decarbamoylation assays. In our hands, under the above conditions only, the diluted and stock solutions of hBChE were stable for at least a month at room temperature.). Total volume in the cuvette was always 500 μL, and enzyme solutions that gave upon dilution v0 = (dA/dt) ≈ 0.5 (for carbamoylation) and ≈ 1 for (for decarbamoylation) were used. For carbamoylation experiments, 0.5–1 μL of enzyme stock, 5 μL of compound solution, and 484 μL of buffer were preincubated for the specified time, then 10 μL of the mixture of 25 mmol/L Ellman’s reagent (DTNB) and 20 mmol/L butyrylthiocholine (large excess to prevent substrate depletion) were added, quickly mixed, and measurement started. […] The data analysis followed the literature[63]^,[98].
# [3] = test system: GSK3β; test: Western blot of APP/PS1 mice brain homogenates, GSK3β; assay type: in vivo, C57BL/6J-TgN(APP/PS1)ZLFILAS mice; details: 15-day treatment, 1 or 5 mg/kg ip
# [4] = molecular target: hAChE (Homo sapiens, UniProt P22303); test: ChE IC50 determination, method of Ellman, hAChE; assay type: biochemical
# Experimental: (§1) The inhibitory potencies of the compounds against the ChEs were determined using the method of Ellman following the procedure described previously. Briefly, compound stock solutions in DMSO were incubated with Ellman’s reagent and ChEs (final concentrations: 370 μmol/L Ellman’s reagent, approximately 1 nmol/L or 50 pmol/L hBChE or hAChE, respectively) in 0.1 mol/L sodium phosphate pH 8.0 for 5 min at 20 °C. For time-dependency measurements, the pre-incubation time was varied (1, 5, 15, 30 or 60 min). The reactions were started by the addition of the substrate (final concentration, 500 μmol/L butyrylthiocholine iodide or acetylthiocholine iodide for hBChE and hAChE, respectively). The final content of DMSO was always 1%. The increase in absorbance at 412 nm was monitored for 2 min using a 96-well microplate reader (Synergy HT, BioTek Instruments, VT, USA). The initial velocities in the presence (vi) and absence (v0) of the test compounds were calculated. The inhibitory potencies were expressed as the residual activities, according to Eq. (1):(1) RA = vi / v0
# (§2) For IC50 determinations, at least seven different concentrations for each compound were used. The IC50 values were obtained by plotting the residual ChE activities against the applied inhibitor concentrations, with the experimental data fitted to a four-parameter logistic function (GraphPad Prism 9.4). Tacrine and donepezil were used as positive controls.
# [5] = molecular target: T1, hBChE; test: ChE IC50 determination, method of Ellman, hBChE; assay type: biochemical
# Experimental: as §1, §2
# [6] = Shake-flask partition coefficient / logD; assay type: physicochemical; details: n-octanol/PBS buffer
# Experimental: Shake-flask partition coefficient measurement was done according to OECD guideline 107 (27. 7. 1995) and EPA OPPTS 830.7550 guideline (1996). […] […] Each solvent ratio was done in duplicates. The Eppendorf tubes were thoroughly shaken to ensure partition and centrifuged (5000 × g, 10 min) to separate the phases. Water phase (carefully sampled using needle and syringe) was transferred to HPLC vials directly, whereas n-octanol phases were diluted with MeCN (10–50×) prior to analysis. Additional dilutions were carried out, if needed.
# T1 sequence (P06276 29-602): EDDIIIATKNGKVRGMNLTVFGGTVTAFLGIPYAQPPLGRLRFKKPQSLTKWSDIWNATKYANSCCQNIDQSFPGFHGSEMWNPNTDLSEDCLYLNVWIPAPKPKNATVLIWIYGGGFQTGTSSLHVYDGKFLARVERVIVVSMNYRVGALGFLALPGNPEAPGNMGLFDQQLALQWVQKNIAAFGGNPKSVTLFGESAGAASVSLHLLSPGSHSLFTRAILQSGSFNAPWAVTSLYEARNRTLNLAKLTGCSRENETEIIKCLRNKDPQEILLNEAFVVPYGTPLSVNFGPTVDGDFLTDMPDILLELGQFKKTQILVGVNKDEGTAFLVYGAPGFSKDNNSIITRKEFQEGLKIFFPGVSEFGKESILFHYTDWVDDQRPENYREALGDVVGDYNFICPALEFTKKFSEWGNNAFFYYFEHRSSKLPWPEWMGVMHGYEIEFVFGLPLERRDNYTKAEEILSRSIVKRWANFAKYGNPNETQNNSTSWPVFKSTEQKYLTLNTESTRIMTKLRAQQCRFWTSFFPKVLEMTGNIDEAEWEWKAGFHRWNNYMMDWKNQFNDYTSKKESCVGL
# Chain of hAChE (P22303 32-614): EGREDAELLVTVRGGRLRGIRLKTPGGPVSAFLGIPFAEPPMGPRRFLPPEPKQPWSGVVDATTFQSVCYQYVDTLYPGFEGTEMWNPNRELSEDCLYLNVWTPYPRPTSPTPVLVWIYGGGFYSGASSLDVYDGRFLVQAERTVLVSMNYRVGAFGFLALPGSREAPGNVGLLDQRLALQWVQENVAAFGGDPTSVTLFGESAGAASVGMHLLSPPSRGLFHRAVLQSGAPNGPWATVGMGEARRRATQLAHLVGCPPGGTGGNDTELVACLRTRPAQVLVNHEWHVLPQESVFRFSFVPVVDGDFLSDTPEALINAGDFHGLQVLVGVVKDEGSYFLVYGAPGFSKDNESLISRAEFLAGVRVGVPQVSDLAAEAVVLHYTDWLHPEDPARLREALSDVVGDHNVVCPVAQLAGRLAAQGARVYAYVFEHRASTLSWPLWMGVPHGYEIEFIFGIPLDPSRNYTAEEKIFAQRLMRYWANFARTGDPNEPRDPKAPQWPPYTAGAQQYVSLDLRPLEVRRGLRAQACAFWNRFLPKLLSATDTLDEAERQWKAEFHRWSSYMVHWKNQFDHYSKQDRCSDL
smiles,measurement,setting,value
"CCN(CC)C(=O)n1cnc(C2(CC)Cc3ccccc3C2)c1 [Compound 8, N,N-Diethyl-4-(2-ethylindan-2-yl)-1H-imidazole-1-carboxamide]",adverse effects on repeated dosing,[1],No adverse effects were observed
same,Ki,[2],2820 ± 200 nM
same,"kcarb, carbamoylation",[2]; 25 °C,3.7±1.7 min^–1
same,"ΔG25°C‡, carbamoylation",[2]; 25 °C,19.1 ± 0.3 kcal/mol
same,reactivation period of the carbamoylated enzyme,[2]; Table 2,> 10 days
same,prolongation of decarbamoylation phase,[2]; compared to 6,> 15 fold
same,phosphorylation of GSK3β in whole brain homogenates,[3],increased phosphorylation of GSK3β
same,hAChE time-dependency observed: Yes/No,[4]; pre-incubation time varied,No
same,remaining activity at 100 µM,"[4]; residual activity at 100 μmol/L, after 5 min preincubation, read-out: hAChE RA±SD (residual activity)",62%
same,IC50,"[5]; after 5 min preincubation, read-out: hBChE IC50±SD",1520 ± 90 nM
same,hBChE time-dependency observed: Yes/No,[5]; pre-incubation time varied,Yes
same,logD,[6]; pH 0.91,0.3 ± 0.06
same,logD,[6]; pH 1.99,1.18 ± 0.1
same,logD,[6]; pH 3.07,2.17 ± 0.25
same,logD,[6]; pH 4.44,3.05 ± 0.1
same,logD,[6]; pH 6.02,3.15 ± 0.14
same,logD,[6]; pH 7.4,3.33 ± 0.11
same,logD,[6]; pH 9.55,3.52 ± 0.39
